Source: patent US8691949B2, “Peptide having anti-diabetic activity and use thereof” (MG Pharma Inc., priority 2008, dated 2014)
Residues, ends and D or L forms follow the SMILES beside them.

Experiment: in vivo
Conditions: mouse, po, 2 g/kg body weight

Structure (SMILES): CC(C)C[C@H](NC(=O)[C@H](CCC(=O)O)NC(=O)[C@H](CO)NC(=O)[C@@H](N)CC(C)C)C(=O)O [LSEL, Leu-Ser-Glu-Leu] (H-LSEL-OH)
- LD50: > 2000 mg/kg
